Data on seven molecules can be found in patent US20170312274A1, “METHOD FOR TREATING A BRAIN TUMOUR” (The Hospital for Sick Children, priority 2014, published 2017).

For assay [1], the system named is GNS cells (GBM-derived neural stem cells). The assay can be described thus: Secondary screen / dose response curve, Alamar Blue cell viability, five days. Format: cell-based, human. Particulars: for pIC50: six GNS and four NS lines, IC50 based on approximate observed value, read-out: potency (IC50), growth inhibition of GNS cells. As to the method:
(§1) GNS and NS lines were grown as an adherent monolayer culture in serum free medium as described previously (Pollard et al. 2009. Cell stem cell 4, 568-580). Primary tumour cells were freshly dissociated from the patient sample in artificial cerebrospinal fluid followed by treatment with an enzyme cocktail at 37° C. (Singh et al. 2003. Cancer research 63, 5821-5828). BJ fibroblast, Daoy and C8-D1A and U-2 0S (ATCC) were maintained in DMEM with 10% FBS.
(§2) Cells were seeded in laminin-coated 384 well plates at a density of 2000 cells per well. Compounds were added at a concentration of approximately 5 μM and incubated with cells for five days at 37° C. Cell viability was assessed by measuring Alamar Blue incorporation according to the manufacturer's protocol (Invitrogen). Percent growth inhibition was calculated relative to the control DMSO wells.
(§3) The potency and selectivity of hits from the primary screen was tested in 8-point two-fold dilution series ranging from 50 μM-0.39 μM concentrations with more lines of GNS, NS and fibroblast. Experimental conditions were the same as in primary screen. IC50 was calculated based on an approximate observed value. Fold selectivity was calculated as IC50 of BJ/IC50 of any GNS cells with lowest IC50.
For orientation: Alamar Blue is a resazurin reagent that responds to reducing activity.

Another assay addresses T1, DRD4 receptor (Homo sapiens, UniProt P21917).
T1 construct: endogenous in cells; host or cells: GNS line G362 (patient-derived glioblastoma neural stem cells)
T1 sequence (P21917 1-419): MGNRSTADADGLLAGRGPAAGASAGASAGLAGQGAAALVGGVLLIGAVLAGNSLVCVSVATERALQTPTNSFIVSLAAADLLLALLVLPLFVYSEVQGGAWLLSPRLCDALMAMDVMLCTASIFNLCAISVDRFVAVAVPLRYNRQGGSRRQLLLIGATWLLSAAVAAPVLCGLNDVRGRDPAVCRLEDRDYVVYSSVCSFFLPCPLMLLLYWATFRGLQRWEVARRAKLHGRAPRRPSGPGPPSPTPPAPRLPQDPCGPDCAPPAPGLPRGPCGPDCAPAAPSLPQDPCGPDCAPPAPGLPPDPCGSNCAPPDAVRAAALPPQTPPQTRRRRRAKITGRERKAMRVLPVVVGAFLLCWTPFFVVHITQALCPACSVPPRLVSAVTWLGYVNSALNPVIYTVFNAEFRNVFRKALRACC
The assay can be described thus: cAMP assay (ELISA-based) in GNS (G362) cells. Format: cell-based. The note with it: pretreatment 30 μM for 15 minutes, then forskolin 30 μM. On the procedure: cAMP levels were measured with an ELISA-based cAMP assay kit purchased from Cell Signaling (#4439). GNS (G362) cells were seeded overnight in a 96 well plate and treated with forskolin (30 μM) for 15 minutes, or pretreated with DRD4 agonist A412997 (30 μM) for 15 minutes followed by forskolin treatment. Cells were lysed and processed as per manufacturer's protocol.
For orientation: Cyclic AMP is a second messenger, typically raised through Gs and lowered through Gi signalling.

Assay [2] relates to GNS cells (G411 and G362). The assay can be described thus: Autophagy markers (LC3B, p62) by western blot and immunofluorescence. Format: cell-based, human. Particulars: for levels of LC3B-II: L-741,742 10 μM, PNU 96415E 25 μM, G411 and G362; for LC3-II levels in the presence of chloroquine compared to control: chloroquine 30 μM, 48 h, G411; for autophagy substrate p62: treated GNS cells (G411). As to the method:
Western blots were performed using the following antibodies; anti-DRD4 antibody at 1:750 (Millipore# MABN125), anti-activated MAPK at 1:2500 (Promega#V803A), anti-ERK1/2 at 1:2000 (Promega#V114A), anti-βactin at 1:10,000 (Sigma), anti-LC3B at 1:1000 (Cell Signaling #3868), anti-p62 at 1:1000 (BD Bioscience), anti-LAMP1 at 1:2000 (Developmental Studies Hybridoma Bank), anti-mono and polyubiquitinylated protein conjugates (FK2) at 1:1000 (Enzo Life Sciences).

For assay [3], the system named is GNS cells (G362) subcutaneous tumour. The assay can be described thus: Patient derived subcutaneous xenograft (G362). Format: in vivo, mouse. Particulars: 20 mg/kg i.p., five days on and two days off, vs vehicle. On the procedure: (§4) All mouse procedures were approved by the Hospital for Sick Children's Animal Care Committee. To validate the in vivo effect of L-741,742 and PNU 96415E, 2×10^5 GNS cells in 200 μl of PBS and matrigel (1:1) were injected subcutaneously into flanks of non-obese diabetic/severe combined immunodeficient (NOD/SCID) female mice. 8 mice (2 tumours per mouse except for one mouse in control group that has one tumour) were maintained for each group; control (15 tumours), L-741,742 (16 tumours) and PNU 96415E (16 tumours). L-741,742 and PNU 96415E were dissolved in 40% 2 hydroxy β-cyclodextrin (Sigma). Mice were treated three days after tumour implantation. Both L-741,742 and PNU 96415E were injected (20 mg/kg) i.p for 5 days on two days off until the end point. Control group was injected with 40% 2 hydroxy β-cyclodextrin. Tumour growth was monitored with microcalipers until tumour volume reached 17 mm in any one tumour from any group and all mice were sacrificed at the same end point. Dissected tumour volume was measured and mass was determined by weighing.
On the technique in general: A xenograft is tissue or cells of one species grown in another, often human tumour cells in immunodeficient mice.

For a further assay, the system named is G411 and G362 cells. The assay can be described thus: Cell cycle analysis by flow cytometry of DNA content. Format: cell-based, human. The note with it: L-741,742 10 μM, PNU 96415E 25 μM, time dependent.
The test system of assay [4] is colony forming cells of in vivo treated tumours. The assay can be described thus: In vitro LDA of in vivo treated xenograft tumours. The arrangement: species or system mouse. Particulars: tumours treated in vivo 20 mg/kg i.p.; vehicle treated tumours 1 in every 11 cells. As to the method: as §4, with “Both L-741,742 and PNU 96415E were injected (20 mg/kg) i.p for 5 days on two days off until the end point. Control group was injected with 40% 2 hydroxy β-cyclodextrin.” left out
Limiting dilution assay was performed as described previously (Tropepe et al., 1999. Developmental Biology 208, 166-188). […] Each well was scored for neurosphere formation after 14 days of incubation. Percent of wells not containing spheres for each cell density was calculated and plotted against the cells per well, regression lines were plotted and x-intercept value at 0.37 was calculated at 95% confidence interval using Sigma Plot, which gives the number of cells required to form at least one neurosphere.

For a further assay, the system named is GNS cells. The assay can be described thus: Caspase 3/7 activity and cleaved PARP in treated GNS cells. Format: cell-based, human.
The test system of assay [5] is ERK1/2 phosphorylation in GNS (G362) cells. The assay can be described thus: Phospho-kinase antibody array. Format: cell-based, human. Particulars: L-741,742 10 μM, PNU 25 μM, 24 h. As to the method:
A human phospho-kinase antibody array was purchased from R&D systems (Cat# ARY003). This array contains capture antibodies for 43 kinases in duplicate on nitrocellulose membrane. GNS (G362) and NS (hf5205) lines were treated with L-741,742 (10 μM) and PNU 96415E (25 μM) along with a DMSO control for 24 h, and cells were then processed according to the manufacturer's protocol. Signal intensity was quantified using ImageJ.

The subject of a further assay is G362 cells. The assay can be described thus: Combination/synergy screen with temozolomide, alamar blue. Format: cell-based, human. Particulars: five days, COMPUSYN, CI <1 indicates synergism. On the procedure: (§5) 2000 GNS cells (G362 and G481) were seeded in a 96 well plate and treated with a combination of 6-point 2-fold dose series of either L-741,742 (6.25 μM-0.39 μM) or PNU 96415E (25 μM-1.56 μM) with 10-point 2-fold dose series of temozolomide (100 μM-0.39 μM) in 60 point combination doses. The cells were incubated with a combination of the two drugs for five days and then checked for cell viability using the alamar blue assay. Combination index (CI) plot and CI value was calculated for 5 point dose series in each combination using the programme COMPUSYN. Data points taken for COMPUSYN analysis are temozolomide (100, 50, 25, 12.5 and 6.25 μM) in combination with either L-741,742 (6.25, 3.12, 1.56, 0.78 and 0.39 μM) or PNU 96415E (25, 12.5, 6.25, 3.12 and 1.56 μM).

The next assay concerns G481 cells. The description is as above. Format: cell-based, human. Particulars: five days, COMPUSYN, CI <1 indicates synergism. On the procedure: as §5
The test system of assay [6] is freshly isolated primary GBM patient tumour cells. The assay can be described thus: Primary in vitro limiting dilution assay (LDA), neurosphere formation. Format: cell-based, human. Particulars: L-741,742 10 μM, PNU 96415E 25 μM, 14 days, n=3 patient tumours. On the procedure: Limiting dilution assay was performed as described previously (Tropepe et al., 1999. Developmental Biology 208, 166-188). Primary tumours were dissociated into single cell suspension and seeded into a 96-well plate with 10 point-2 fold serial dilution starting from 2000 cells to 4 cells/well, 6 wells for each dilution per plate. Each well was scored for neurosphere formation after 14 days of incubation. Percent of wells not containing spheres for each cell density was calculated and plotted against the cells per well, regression lines were plotted and x-intercept value at 0.37 was calculated at 95% confidence interval using Sigma Plot, which gives the number of cells required to form at least one neurosphere.

For assay [7], the system named is non-NS control cells (BJ fibroblast, Daoy, U-2 0S, C8-D1A). The assay can be described thus: Dose response cell viability in non-NS control cell lines. Format: cell-based. Particulars: highest concentration tested 50 μM. As to the method:
as §1, §2, §3

[8] abbreviates: dose response series 0.39-50 μM.

pIC50: −log10 of the molar value.

As for `Br.Br.CN(CCc1ccc(Cl)c(Cl)c1)[C@@H]1CCCC[C@@H]1N1CCCC1` (racemic) [cis-(±)-N-Methyl-N-[2-(3,4-dichlorophenyl)ethyl]-2-(1-pyrrolidinyl)cyclohexamine 2HBr], the “Fold selectivity towards GNS and NS cells compared to fibroblasts (IC50 of BJ/IC50 of any of the NS or GNS lines that showed the lowest IC50)” value in [1] (dose response series 0.39-50 μM, five days) came out at 8 fold.

On to `Cc1cccc(NC(=O)CN2CCC(c3ccccn3)CC2)c1` [A412997], for which the “block of forskolin-induced cAMP response” value on DRD4 receptor was 38%.

`Cc1c(C2CCN(CCc3ccccc3)CC2)noc1-c1ccc(Cl)cc1` [L-741,742]: in assay [2], the “levels of LC3B-II” value was “increase”, the “LC3-II levels in the presence of chloroquine compared to control” value is given as “did not increase” and the “autophagy substrate p62” value is “accumulated”. The “average tumour weight at the end point reduced by” value in assay [3] is listed as 40.9%. Besides, the “effect on the cell cycle” value in the assay with G411 and G362 cells is “G0/G1 arrest”. Besides, the “colony forming cell frequency, 1 in every x cells” value in [4] is reported as 76 cells. Besides, the “selectivity against GNS cells compared to NS cells” value (“selectivity against GNS cells” below) in assay [1] (setting [8]) is 8 fold. For the same molecule, in [1], the pIC50 was 5.21 to 5.82. In addition, in the assay with GNS cells, the “caspase 3/7 activity or cleaved PARP” value was “no increase”. For the same molecule, the “reduction of ERK1/2 phosphorylation compared to the untreated control” value in assay [5] worked out at 40%. In addition, the “lowest combination index (CI) value in combination with TMZ” value (shortened to “lowest combination index (CI) value”) with G362 cells was 0.29. Also, in the assay on G481 cells, the “lowest combination index (CI) value” value was 0.28. The “reduction in frequency of colony forming cells in comparison to the control” value in [6] was 40-83 fold.

As to `Clc1ccc(N2CCN(Cc3c[nH]c4ncccc34)CC2)cc1` [L-745,870], the pIC50 in assay [1] is 5.21 to 5.51.

With `Cl.Cl.Fc1ccc(N2CCN(CCC3OCCc4ccccc43)CC2)cc1` (centres unmarked) [PNU 96415E], in [2], the “levels of LC3B-II” value is listed as “increase”, the “LC3-II levels in the presence of chloroquine compared to control” value is listed as “did not increase” and the “autophagy substrate p62” value is “accumulated”. The “average tumour weight at the end point reduced by” value in assay [3] stood at 44.3%. Besides, the “effect on the cell cycle” value in the assay on G411 and G362 cells is recorded as “G0/G1 arrest”. The “colony forming cell frequency, 1 in every x cells” value in [4] was 43 cells. Also, the “selectivity against GNS cells” value in [1] (setting [8]) is given as 8 fold. Besides, in [1], the pIC50 was 5.20. Moreover, in the assay with GNS cells, the “caspase 3/7 activity or cleaved PARP” value was “no increase”. Moreover, the “reduction of ERK1/2 phosphorylation compared to the untreated control” value in [5] is reported as 40%. Moreover, the “sensitivity of non-NS control cells” value in assay [7] is on record as “not sensitive even at the highest concentration tested”. Besides, the “lowest combination index (CI) value” value in the assay with G362 cells is recorded as 0.56. Moreover, in the assay on G481 cells, the “lowest combination index (CI) value” value was 0.32. For the same molecule, the “reduction in frequency of colony forming cells in comparison to the control” value in assay [6] was 19-29 fold.

As to Ifenprodil tartrate, the “selectivity against GNS cells” value in assay [1] (setting [8]) was 8 fold.

As for PD168568, the pIC50 in assay [1] is 4.30 to 4.60.

As usually defined, the pIC50 is the IC50 on a negative log10 scale, so that one unit is a factor of ten.
